This assay deals with BDF1 mice, P388 leukemia ip, median survival T/C. The experiment in a line: NCI In Vivo Anticancer Drug Screen. Data for tumor model P388 Leukemia (intraperitoneal) in B6D2F1 (BDF1) mice. Conditions: endpoint: median survival time, higher = longer survival. In short, it runs like this: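 T/C = treated-group survival ÷ vehicle-control survival; tumour transplanted into mice before dosing.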

[1] abbreviates: dose: 25.0 mg/kg/injection, schedule: Q01DX009 (ip), vehicle: saline.
The mark [2] stands for this setting: dose: 50.0 mg/kg/injection, schedule: Q01DX009 (ip), vehicle: saline.
Where [3] appears, read: dose: 200.0 mg/kg/injection, schedule: Q01DX009 (ip), vehicle: Klucel (hydroxypropylcellulose) (HPC).
[4] abbreviates: dose: 50.0 mg/kg/injection, schedule: Q01DX009 (ip), vehicle: saline with Tween-80.
The mark [5] stands for this setting: dose: 100.0 mg/kg/injection, schedule: Q01DX009 (ip), vehicle: saline with Tween-80.
Setting [6] is: dose: 25.0 mg/kg/injection, schedule: Q04DX003 (ip), vehicle: saline with Tween-80.
[7] abbreviates: dose: 50.0 mg/kg/injection, schedule: Q04DX003 (ip), vehicle: saline with Tween-80.
The mark [8] stands for this setting: dose: 12.5 mg/kg/injection, schedule: Q01DX009 (ip), vehicle: saline with Tween-80.
The mark [9] stands for this setting: dose: 25.0 mg/kg/injection, schedule: Q01DX009 (ip), vehicle: saline with Tween-80.

Where “and” joins values, the source holds several entries; their conditions need not be identical. Equal entries are not always repeated. Inconclusive results and toxic doses are left out.

As to `CC1=C(C)C(=O)c2c(OC(=O)c3ccccc3)ccc(OC(=O)c3ccccc3)c2C1=O`, the T/C by setting is: (dose: 6.25 mg/kg/injection, schedule: Q04DX003 (ip), vehicle: saline) 102 % of control; (dose: 12.5 mg/kg/injection, schedule: Q04DX003 (ip), vehicle: saline) 103 % of control; under setting [1], 92 % of control; (dose: 25.0 mg/kg/injection, schedule: Q04DX003 (ip), vehicle: saline) 94 % of control; under setting [2], 101 % of control; (dose: 50.0 mg/kg/injection, schedule: Q04DX003 (ip), vehicle: saline) 99 % of control. The T/C runs as follows: (dose: 100.0 mg/kg/injection, schedule: Q01DX009 (ip), vehicle: saline) 92 % of control; (dose: 100.0 mg/kg/injection, schedule: Q04DX003 (ip), vehicle: saline) 94 % of control; (dose: 200.0 mg/kg/injection, schedule: Q01DX009 (ip), vehicle: saline) 91 % of control; (dose: 400.0 mg/kg/injection, schedule: Q01DX009 (ip), vehicle: saline) 89 % of control.

Regarding `O=C(C=C(C(F)(F)F)C(F)(F)F)c1ccc(Br)cc1`, the T/C was 113 % of control (dose: 5.56 mg/kg/injection, schedule: Q01DX009 (ip), vehicle: other); 113 % of control (dose: 8.33 mg/kg/injection, schedule: Q01DX009 (ip), vehicle: other); 109 % of control (dose: 12.5 mg/kg/injection, schedule: Q01DX009 (ip), vehicle: other); 109 % of control (dose: 18.7 mg/kg/injection, schedule: Q01DX009 (ip), vehicle: other).

As for `O=C(O)c1c2c(nc3ccccc13)Cc1ccccc1-2`, the T/C was 96 % of control and 97 % of control (dose: 12.5 mg/kg/injection, schedule: Q01DX009 (ip), vehicle: water); 111 % of control under setting [1]; 88 % of control and 114 % of control (dose: 25.0 mg/kg/injection, schedule: Q01DX009 (ip), vehicle: water); 110 % of control under setting [2]; 119 % of control (dose: 50.0 mg/kg/injection, schedule: Q01DX009 (ip), vehicle: water); 163 % of control (dose: 90.0 mg/kg/injection, schedule: Q01DX009 (ip), vehicle: Klucel (hydroxypropylcellulose) (HPC)). The T/C was 173 % of control and 176 % of control (dose: 100.0 mg/kg/injection, schedule: Q01DX009 (ip), vehicle: water); 186 % of control (dose: 133.0 mg/kg/injection, schedule: Q01DX009 (ip), vehicle: Klucel (hydroxypropylcellulose) (HPC)); 163 % of control under setting [3]; 187 % of control (dose: 200.0 mg/kg/injection, schedule: Q01DX009 (ip), vehicle: water).

For `CC(=O)OC1OC(CSC(=N)N)C(OC(C)=O)C(OC(C)=O)C1OC(C)=O` (stereo not given), the T/C is 116 % of control under setting [4]; 119 % of control under setting [5]; 110 % of control (dose: 200.0 mg/kg/injection, schedule: Q01DX009 (ip), vehicle: saline with Tween-80).

With `COc1ccc(CNc2ncccn2)cc1`, the T/C is, setting by setting: (dose: 25.0 mg/kg/injection, schedule: Q01DX009 (ip), vehicle: Klucel (hydroxypropylcellulose) (HPC)) 95 % of control; (dose: 50.0 mg/kg/injection, schedule: Q01DX009 (ip), vehicle: Klucel (hydroxypropylcellulose) (HPC)) 100 % of control; (dose: 100.0 mg/kg/injection, schedule: Q01DX009 (ip), vehicle: Klucel (hydroxypropylcellulose) (HPC)) 104 % of control; (dose: 100.0 mg/kg/injection, schedule: Q04DX003 (ip), vehicle: Klucel (hydroxypropylcellulose) (HPC)) 88 % of control; under setting [3], 89 % of control; (dose: 200.0 mg/kg/injection, schedule: Q04DX003 (ip), vehicle: Klucel (hydroxypropylcellulose) (HPC)) 96 % of control.

For `C=C1CCC2C1C1C(C(C)C)CCC21C` (stereo not given), the T/C by setting is: under setting [4], 105 % of control; under setting [5], 104 % of control.

For the compound `COc1cc(OC)c(OC)cc1/C=C\c1ccnc2ccccc12`, the T/C was 120 % of control (dose: 133.0 mg/kg/injection, schedule: Q01DX010 (ip), vehicle: saline); 116 % of control (dose: 200.0 mg/kg/injection, schedule: Q01DX009 (ip), vehicle: carboxymethylcellulose (CMC)); 120 % of control (dose: 200.0 mg/kg/injection, schedule: Q01DX010 (ip), vehicle: saline); 166 % of control (dose: 400.0 mg/kg/injection, schedule: Q01DX009 (ip), vehicle: carboxymethylcellulose (CMC)); 120 % of control (dose: 450.0 mg/kg/injection, schedule: Q01DX010 (ip), vehicle: saline).

Regarding `C1=CC(c2ccccc2)N2C(C(c3ccccc3)=N1)C2c1ccccc1` (stereo not given), the T/C reads like this: under setting [6], 98 % of control; under setting [7], 94 % of control; (dose: 100.0 mg/kg/injection, schedule: Q04DX003 (ip), vehicle: saline with Tween-80) 100 % of control; (dose: 200.0 mg/kg/injection, schedule: Q04DX003 (ip), vehicle: saline with Tween-80) 103 % of control.

Turning to `COC(=O)/C=C1/OC(=O)CC1(C)C`, the T/C (dose: 100.0 mg/kg/injection, schedule: Q01DX001 (ip), vehicle: saline with Tween-80) is 105 % of control; the T/C (dose: 200.0 mg/kg/injection, schedule: Q01DX001 (ip), vehicle: saline with Tween-80) is 95 % of control; the T/C (dose: 400.0 mg/kg/injection, schedule: Q01DX001 (ip), vehicle: saline with Tween-80) is 100 % of control.

As to `O=NN(CCCl)C(=O)Nc1c[nH]c(=O)[nH]c1=O`, the T/C runs as follows: (dose: 0.08 mg/kg/injection, schedule: Q04DX003 (ip), vehicle: saline with Tween-80) 155 % of control; (dose: 0.09 mg/kg/injection, schedule: Q04DX003 (ip), vehicle: saline with Tween-80) 100 % of control; (dose: 0.15 mg/kg/injection, schedule: Q04DX003 (ip), vehicle: saline with Tween-80) 180 % of control; (dose: 0.3 mg/kg/injection, schedule: Q04DX003 (ip), vehicle: saline with Tween-80) 185 % of control; (dose: 0.78 mg/kg/injection, schedule: Q04DX003 (ip), vehicle: saline with Tween-80) 175 % of control; (dose: 1.56 mg/kg/injection, schedule: Q04DX003 (ip), vehicle: saline with Tween-80) 154 % of control. The T/C is 186 % of control (dose: 2.4 mg/kg/injection, schedule: Q01DX009 (ip), vehicle: saline with Tween-80); 213 % of control (dose: 3.12 mg/kg/injection, schedule: Q04DX003 (ip), vehicle: saline with Tween-80); 201 % of control (dose: 3.6 mg/kg/injection, schedule: Q01DX009 (ip), vehicle: saline with Tween-80); 195 % of control (dose: 4.0 mg/kg/injection, schedule: Q01DX009 (ip), vehicle: saline with Tween-80); 193 % of control (dose: 5.5 mg/kg/injection, schedule: Q01DX009 (ip), vehicle: saline with Tween-80); 229 % of control (dose: 6.0 mg/kg/injection, schedule: Q01DX009 (ip), vehicle: saline with Tween-80). Further, the T/C is, setting by setting: (dose: 6.25 mg/kg/injection, schedule: Q04DX003 (ip), vehicle: saline with Tween-80) 190 % of control; (dose: 8.0 mg/kg/injection, schedule: Q01DX009 (ip), vehicle: saline with Tween-80) 220 % of control; (dose: 8.0 mg/kg/injection, schedule: Q04DX003 (ip), vehicle: saline with Tween-80) 204 % of control; (dose: 9.0 mg/kg/injection, schedule: Q01DX009 (ip), vehicle: saline with Tween-80) 120 % of control; (dose: 12.0 mg/kg/injection, schedule: Q01DX009 (ip), vehicle: saline with Tween-80) 250 % of control; (dose: 12.0 mg/kg/injection, schedule: Q04DX003 (ip), vehicle: saline with Tween-80) 204 % of control. Besides, the T/C was 250 % of control under setting [8]; 230 % of control (dose: 12.5 mg/kg/injection, schedule: Q04DX003 (ip), vehicle: saline with Tween-80); 104 % of control (dose: 18.0 mg/kg/injection, schedule: Q01DX009 (ip), vehicle: saline with Tween-80); 227 % of control (dose: 18.0 mg/kg/injection, schedule: Q04DX003 (ip), vehicle: saline with Tween-80); 100 % of control under setting [9]; 230 % of control under setting [6]. In addition, the T/C under setting [7] is 230 % of control.

On to `Cc1ccc2c(c1)=N/C(=N/c1[nH]c(O)c3ccccc13)N=2`, for which the T/C reads like this: (dose: 6.25 mg/kg/injection, schedule: Q01DX009 (ip), vehicle: saline with Tween-80) 108 % of control; under setting [8], 99 % of control; under setting [9], 108 % of control.

Values taken from PubChem BioAssay AID328 (DTP/NCI, 2004).
